The inhibition in vivo is the drop in the measured response relative to a control, in per cent.

What all share (format): functional
Test [1] deals with Rattus norvegicus. Kind of test: Antiinflammatory activity in Wistar rat assessed as inhibition of PGE2-induced paw edema at 40 mg/kg, po administered 30 mins prior to PGE2 treatment measured after 3 hrs.
The test system of test [2] is Rattus norvegicus. The test is described as follows: Antiinflammatory activity in Wistar rat assessed as inhibition of dextran-induced paw edema at 40 mg/kg, po administered 30 mins prior to dextran treatment measured after 3 hrs.
Test [3] has as its system Rattus norvegicus. The test is described as follows: Antiinflammatory activity in Wistar rat assessed as inhibition of dextran-induced paw edema administered orally 30 mins prior to dextran treatment measured after 3 hrs.
For test [4], the system named is Rattus norvegicus. Kind of test: Antiinflammatory activity in Wistar rat assessed as inhibition of PGE2-induced paw edema at 10 mg/kg, po administered 30 mins prior to PGE2 treatment measured after 3 hrs.

Regarding `O=C1OC[C@@H](Cc2ccc3c(c2)OCO3)[C@@H]1Cc1ccc2c(c1)OCO2`, the results for the inhibition in vivo at 40 mg/kg with Rattus norvegicus [1] and in the test with Rattus norvegicus [2] were 59.2% and 18.3%, respectively. In the case of `c1ccc(COC2OC[C@@H](Cc3ccc4c(c3)OCO4)[C@@H]2Cc2ccc3c(c2)OCO3)cc1` (stereo partly specified), the values for the inhibition in vivo at 40 mg/kg in the test with Rattus norvegicus [1] and in the test on Rattus norvegicus [2] were 66% and 3.5%, respectively. In the case of `CN1CCC(=C2c3ccccc3C=Cc3ccccc32)CC1` [CYPROHEPTADINE], in the test with Rattus norvegicus [3], the “inhibition (INH)” value stood at 56%. As to `COc1ccc2c(c1)c(CC(=O)O)c(C)n2C(=O)c1ccc(Cl)cc1` [INDOMETHACIN], in the test with Rattus norvegicus [4], the inhibition in vivo at 10 mg/kg was found to be 54%.

(Values after ChEMBL document CHEMBL3871303, “In vivo and in silico anti-inflammatory mechanism of action of the semisynthetic (-)-cubebin derivatives (-)-hinokinin and (-)-O-benzylcubebin” (2017).)
